Test results from patent US6893858B2, “Human kcnq5 potassium channel, methods and compositions thereof” (Bristol-Myers Squibb Company, priority 2000, dated 2005).

Molecular target: hKCNQ5 (Homo sapiens, UniProt Q9NR82)
Sequence (Q9NR82 36-932): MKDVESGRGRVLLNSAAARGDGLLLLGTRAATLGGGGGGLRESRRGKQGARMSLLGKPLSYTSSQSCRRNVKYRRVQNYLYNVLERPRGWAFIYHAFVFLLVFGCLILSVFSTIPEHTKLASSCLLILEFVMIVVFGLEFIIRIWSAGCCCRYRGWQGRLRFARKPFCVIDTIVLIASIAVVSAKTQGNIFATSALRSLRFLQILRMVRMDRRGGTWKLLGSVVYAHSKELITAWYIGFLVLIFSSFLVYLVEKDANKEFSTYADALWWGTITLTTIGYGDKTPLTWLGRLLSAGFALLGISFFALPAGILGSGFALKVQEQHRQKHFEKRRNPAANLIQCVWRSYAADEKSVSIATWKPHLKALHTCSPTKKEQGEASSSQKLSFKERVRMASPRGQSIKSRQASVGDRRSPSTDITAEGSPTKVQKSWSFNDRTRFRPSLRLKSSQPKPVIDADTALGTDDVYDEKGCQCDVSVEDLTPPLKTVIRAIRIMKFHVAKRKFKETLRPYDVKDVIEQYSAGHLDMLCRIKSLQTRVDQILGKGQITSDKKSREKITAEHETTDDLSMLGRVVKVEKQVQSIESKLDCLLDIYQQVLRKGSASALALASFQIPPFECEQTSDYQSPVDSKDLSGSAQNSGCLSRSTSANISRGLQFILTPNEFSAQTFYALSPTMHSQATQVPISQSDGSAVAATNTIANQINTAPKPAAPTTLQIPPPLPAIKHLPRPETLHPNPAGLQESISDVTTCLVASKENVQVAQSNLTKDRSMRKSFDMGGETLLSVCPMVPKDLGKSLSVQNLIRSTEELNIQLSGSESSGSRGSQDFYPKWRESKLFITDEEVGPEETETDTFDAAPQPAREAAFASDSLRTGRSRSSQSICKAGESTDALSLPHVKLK
Description: Frog (Xenopus laevis) oocytes were prepared and injected using standard techniques; each oocyte was injected with approximately 50 nl of hKCNQ5 cRNA. Following injection, oocytes were maintained at 17° C. in ND96 medium comprising (in mM): NaCl, 90; KCl, 1.0; CaCl2, 1.0; MgCl2, 1.0; HEPES, 5.0; pH 7.5. Horse serum (5%) and penicillin/streptomycin (5%) were added to the incubation medium. Recording commenced 2-6 days following mRNA injection. Prior to the start of an experiment, oocytes were placed in a recording chamber and incubated in Modified Barth's Solution (MBS) consisting of (in mM): NaCl, 88; NaHCO3, 2.4; KCl, 1.0; HEPES, 10; MgSO4, 0.82; Ca(NO3)2, 0.33; CaCl2, 0.41; pH 7.5. Oocytes were impaled with electrodes (1-2 MΩ) and standard 2-electrode voltage clamp techniques were employed to record whole-cell membrane currents. Voltage-clamp protocols typically consisted of a series of voltage steps 1-5 second duration, in +10 mV steps from a holding potential of −90 mV to a maximal potential of +40 mV; records were digitized at 5 kHz and stored on a computer using pClamp data acquisition and analysis software (Axon Instruments).

## CC[N+](CC)(CC)CC [TEA, tetraethylammonium]
hKCNQ5 cRNA expressed in Xenopus oocytes, concentrations as high as 30 mM, whole-cell outward currents
  resistance of hKCNQ5 currents to the potassium channel blocker: largely resistant
hKCNQ5 expressed in Xenopus oocytes, at high concentrations
  blockage of hKCNQ5 outward currents (FIG. 8 legend): resistant to blockage
